Series [1] can be described thus: Storage stability of the crystals at 60° C. (remaining activity by HPLC). In kind it is physicochemical. On the procedure:
About 500 mg of Compound (1) in a crystalline form obtained in each of Example 1 and Comparative example 1 was weighed out in a glass bottle, and the bottle was tightly sealed. Then, the bottle was left in a constant-temperature room at 60° C. for 8 days.

A short description of series [2]: Bulk density of crystals passing a 500 μm sieve (tapped). It is filed as physicochemical. The settings on record: crystals with particle size 500 μm or less; weight of crystals/volume of crystals after tapping. Here is the method:
Arbitrarily, 3.0 g of Compound (1) in a crystalline form obtained in each of Example 1, Comparative example 1, Example 2 and Comparative example 2 was taken out, and was passed through a test sieve with a diameter of 8 cm and a mesh size of 500 μm in accordance with the Japanese Industrial Standard (JIS Z 8801), and the bulk density of the crystals passing through the sieve was measured. […] The bulk density was calculated by using “weight of crystals”/“volume of crystals” as a calculation method.

A short description of series [3]: Particle size distribution of crystals by sieving (JIS Z 8801 / JIS Z 8901). In kind it is physicochemical. The settings on record: for ratio of weight of crystals, particle size <177 μm: mesh size <177 μm; for ratio of weight of crystals, particle size <350, ≧177 μm: mesh size <350, ≧177 μm; for ratio of weight of crystals, particle size ≧350 μm: mesh size ≧350 μm. The text has this:
Arbitrarily, 3.0 g of Compound (1) in a crystalline form obtained in each of Example 2, Comparative example 2, Example 3 and Comparative example 3 was taken out. Test sieves with a mesh size in accordance with the Japanese Industrial Standard (JIS Z 8801), having a mesh size of 500 μm, 420 μm, 350 μm, 250 μm, 177 μm, 149 μm, 125 μm, 74 μm or 44 μm and an inner diameter of 8 cm, were used, and were shaken by hand in accordance with the measurement procedure of the standard sieving method specified in JIS Z 8901. The results obtained by comparing the particle size distributions between the “crystal of Example 2” and the “crystal of Comparative example 2”, and between the “crystal of Example 3” and the “crystal of Comparative example 3” are shown in Table 3.

For series [4] the following is noted: stored at 40° C. for 20 days, crystalline form; cited from earlier work.
The mark [5] stands for this setting: Day 1 (set as 100%), crystal in sealed glass bottle at 60° C.
Setting [6] is: Day 4, crystal in sealed glass bottle at 60° C.
Setting [7] is: Day 6, crystal in sealed glass bottle at 60° C.
Where [8] appears, read: Day 8, crystal in sealed glass bottle at 60° C.

Take `C[C@@H](O)[C@H]1C(=O)N2C(C(=O)OCc3ccc([N+](=O)[O-])cc3)=C(OP(=O)(Oc3ccccc3)Oc3ccccc3)[C@H](C)[C@H]12` [Comparative Example 1, p-nitrobenzyl (4R,5R,6S)-1-aza-3-diphenyloxyphosphoryloxy-6-[(1R)-1-hydroxyethyl]-4-methyl-7-oxobicyclo[3.2.0]hept-2-en-2-carboxylate, reference compound]: the remaining activity in series [1] (setting [5]) came to 100%; in series [1] (setting [6]) it was 96%; in series [1] (setting [7]), 87%; in series [1] (setting [8]) it was 80%. The “Bulk Density” value in series [2] was 0.37.

Take `C[C@@H](O)[C@H]1C(=O)N2C(C(=O)OCc3ccc([N+](=O)[O-])cc3)=C(OP(=O)(Oc3ccccc3)Oc3ccccc3)[C@H](C)[C@H]12` [Example 3, p-nitrobenzyl (4R,5R,6S)-1-aza-3-diphenyloxyphosphoryloxy-6-[(1R)-1-hydroxyethyl]-4-methyl-7-oxobicyclo[3.2.0]hept-2-en-2-carboxylate]: in series [3], the “ratio of weight of crystals, particle size <177 μm” value (“ratio … particle size <177 μm” for short) stood at 18%; the “ratio of weight of crystals, particle size <350, ≧177 μm” value (from here on “ratio of weight of crystals … ≧177 μm”) is given as 36%; the “ratio of weight of crystals, particle size ≧350 μm” value (“ratio … particle size ≧350 μm” below) was 46%.

Consider `C[C@@H](O)[C@H]1C(=O)N2C(C(=O)OCc3ccc([N+](=O)[O-])cc3)=C(OP(=O)(Oc3ccccc3)Oc3ccccc3)[C@H](C)[C@H]12` [Example 2, p-nitrobenzyl (4R,5R,6S)-1-aza-3-diphenyloxyphosphoryloxy-6-[(1R)-1-hydroxyethyl]-4-methyl-7-oxobicyclo[3.2.0]hept-2-en-2-carboxylate], for which, in series [3], the “ratio … particle size <177 μm” value is given as 10%; the “ratio of weight of crystals … ≧177 μm” value came out at 41%; the “ratio … particle size ≧350 μm” value is 49%. In series [2], the “Bulk Density” value worked out at 0.40.

For the molecule `C[C@@H](O)[C@H]1C(=O)N2C(C(=O)OCc3ccc([N+](=O)[O-])cc3)=C(OP(=O)(Oc3ccccc3)Oc3ccccc3)[C@H](C)[C@H]12` [Compound (1), p-nitrobenzyl (4R,5R,6S)-1-aza-3-diphenyloxyphosphoryloxy-6-[(1R)-1-hydroxyethyl]-4-methyl-7-oxobicyclo[3.2.0]hept-2-en-2-carboxylate], the decomposition in series [1] (storage at 60° C., 8 days, crystal obtained by the same method as Patent document 4) came out at 20%. Also, the decomposition on storage entry in series [4] is “not decomposed”.

With `C[C@@H](O)[C@H]1C(=O)N2C(C(=O)OCc3ccc([N+](=O)[O-])cc3)=C(OP(=O)(Oc3ccccc3)Oc3ccccc3)[C@H](C)[C@H]12` [Comparative example 3, p-nitrobenzyl (4R,5R,6S)-1-aza-3-diphenyloxyphosphoryloxy-6-[(1R)-1-hydroxyethyl]-4-methyl-7-oxobicyclo[3.2.0]hept-2-en-2-carboxylate, reference compound], in series [3], the “ratio … particle size <177 μm” value worked out at 25%; the “ratio of weight of crystals … ≧177 μm” value was determined as 45%; the “ratio … particle size ≧350 μm” value turned out to be 30%.

As for `C[C@@H](O)[C@H]1C(=O)N2C(C(=O)OCc3ccc([N+](=O)[O-])cc3)=C(OP(=O)(Oc3ccccc3)Oc3ccccc3)[C@H](C)[C@H]12` [Example 1, p-nitrobenzyl (4R,5R,6S)-1-aza-3-diphenyloxyphosphoryloxy-6-[(1R)-1-hydroxyethyl]-4-methyl-7-oxobicyclo[3.2.0]hept-2-en-2-carboxylate], the remaining activity in series [1] (setting [5]) is reported as 100%; in series [1] (setting [6]), 97%; in series [1] (setting [7]), 92%; in series [1] (setting [8]), 88%. Also, in series [2], the “Bulk Density” value worked out at 0.43.

On to `C[C@@H](O)[C@H]1C(=O)N2C(C(=O)OCc3ccc([N+](=O)[O-])cc3)=C(OP(=O)(Oc3ccccc3)Oc3ccccc3)[C@H](C)[C@H]12` [Comparative example 2, p-nitrobenzyl (4R,5R,6S)-1-aza-3-diphenyloxyphosphoryloxy-6-[(1R)-1-hydroxyethyl]-4-methyl-7-oxobicyclo[3.2.0]hept-2-en-2-carboxylate, reference compound], for which, in series [3], the “ratio … particle size <177 μm” value is recorded as 34%; the “ratio of weight of crystals … ≧177 μm” value is on record as 47%; the “ratio … particle size ≧350 μm” value stood at 19%. The “Bulk Density” value in series [2] was determined as 0.36.

The record behind these values is patent publication US8093378B2, “Crystallization method for intermediates of carbapenem antibiotics” (Kaneka Corporation, priority 2006, dated 2012).
